Measurements from US20110055943A1, “NOVEL THERAPEUTIC TARGETS IN INFLAMMATORY BOWEL DISEASE” (SALIX PHARMACEUTICALS, LTD., priority 2007, published 2011).

Tests used:
[1] = Intestinal tract distribution of RIF and RIFax in mice (intestinal contents, LC-MS/MS); format: in vivo; settings: mice; for intestinal tract concentration compared with RIF: oral treatment
Experimental: The maximum concentration in serum (Cmax) was obtained from the original data. […] Intestinal contents were weighted, and homogenized in methanol (100 mg/ml). The homogenate was centrifuged at 14,000 rpm for 10 min at 4° C.
The mass spectrometer was operated in the turbo ion spray mode with positive ion detection. The turbo ion spray temperature was maintained at 300° C., and a voltage of 4.8 kV was applied to the sprayer needle. N2 was used as the turbo ion spray and nebulizing gas.

[2] = tested on: PXR target genes (CYP3A11, GSTA1, MRP2, OATP2); test: qPCR analysis of PXR target genes in Pxr-null mice; format: in vivo
[3] = target: T1, CAR (Mus musculus, UniProt O35627); test: Cell-based reporter assay, transfected HCT116 cells, dual luciferase; settings: 10 μM, 24 h
T1 construct: expressed in transfected cells; host or cells: HCT116
T1 sequence (O35627 1-358): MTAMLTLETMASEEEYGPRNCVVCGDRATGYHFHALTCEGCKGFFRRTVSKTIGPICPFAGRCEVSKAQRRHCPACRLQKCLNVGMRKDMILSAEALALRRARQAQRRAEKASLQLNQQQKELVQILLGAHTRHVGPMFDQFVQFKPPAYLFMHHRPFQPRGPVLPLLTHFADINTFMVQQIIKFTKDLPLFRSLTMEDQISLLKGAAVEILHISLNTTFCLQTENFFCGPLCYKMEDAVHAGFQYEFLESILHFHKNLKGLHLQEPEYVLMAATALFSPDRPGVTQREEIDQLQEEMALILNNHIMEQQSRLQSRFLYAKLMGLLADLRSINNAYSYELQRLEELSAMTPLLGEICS
Experimental: (§1) A hepG2 cell line (DPX2) with stable expression of recombinant human PXR and a PXR-response element cloned in a luciferase vector was obtained from Puracyp Inc. (Carlsbad, Calif.). The construction and validation of the cell lines were reported previously (Yueh et al., 2005). The cells were seeded according to the distributor's instruction. […] The activation of PXR was determined by measuring the firefly luciferase activity 24 h later, followed by normalization of luciferase activity by protein concentrations. For cell-based reporter assay of nuclear receptors CAR, PPARα, PPARγ, and FXR, HCT116 cells were plated on 24-well plates (5×10^4 cells/well, cultured in DMEM containing 10% FBS), and transfected with the various expression vectors using Fugene transfection reagent (Roche, Indianapolis, Ind.). The mouse PPAR and CAR vectors were described in previous reports (Kliewer et al., 1992; Swales et al., 2005). The mouse FXR vector was provided by Dr Christopher J. Sinal. […] TCPOBOP (250 nM), Wy-14,643 (10 μM), rosiglitazone (10 μM), and GW4064 (25 μM) were used as positive controls respectively for mouse CAR, PPARα, PPARγ, and FXR. A standard dual luciferase assay was used and normalized to a cotransfected control reporter (Promega, Madison, Wis.). Each in vitro assay was repeated at least three times.

[4] = target: T2, FXR (Mus musculus, UniProt Q60641); test: as above; settings: 10 μM, 24 h
T2 construct: expressed in transfected cells; host or cells: HCT116
T2 sequence (Q60641 1-488): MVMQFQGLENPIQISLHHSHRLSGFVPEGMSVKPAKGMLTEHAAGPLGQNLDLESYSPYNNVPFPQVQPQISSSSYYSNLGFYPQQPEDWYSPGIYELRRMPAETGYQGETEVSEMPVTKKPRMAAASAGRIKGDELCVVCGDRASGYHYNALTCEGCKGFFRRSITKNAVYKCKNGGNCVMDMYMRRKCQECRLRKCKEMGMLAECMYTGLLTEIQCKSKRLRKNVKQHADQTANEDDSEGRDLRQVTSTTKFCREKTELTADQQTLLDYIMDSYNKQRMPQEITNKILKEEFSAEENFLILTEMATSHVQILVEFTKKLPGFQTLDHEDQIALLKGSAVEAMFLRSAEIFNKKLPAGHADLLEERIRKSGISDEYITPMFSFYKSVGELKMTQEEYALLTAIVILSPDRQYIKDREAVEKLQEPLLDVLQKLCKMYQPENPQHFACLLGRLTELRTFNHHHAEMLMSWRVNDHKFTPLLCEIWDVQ
Experimental: as §1

[5] = target: T3, PPARα (Mus musculus, UniProt P23204); test: as above; settings: 10 μM, 24 h
T3 construct: expressed in transfected cells; host or cells: HCT116
T3 sequence (P23204 1-468): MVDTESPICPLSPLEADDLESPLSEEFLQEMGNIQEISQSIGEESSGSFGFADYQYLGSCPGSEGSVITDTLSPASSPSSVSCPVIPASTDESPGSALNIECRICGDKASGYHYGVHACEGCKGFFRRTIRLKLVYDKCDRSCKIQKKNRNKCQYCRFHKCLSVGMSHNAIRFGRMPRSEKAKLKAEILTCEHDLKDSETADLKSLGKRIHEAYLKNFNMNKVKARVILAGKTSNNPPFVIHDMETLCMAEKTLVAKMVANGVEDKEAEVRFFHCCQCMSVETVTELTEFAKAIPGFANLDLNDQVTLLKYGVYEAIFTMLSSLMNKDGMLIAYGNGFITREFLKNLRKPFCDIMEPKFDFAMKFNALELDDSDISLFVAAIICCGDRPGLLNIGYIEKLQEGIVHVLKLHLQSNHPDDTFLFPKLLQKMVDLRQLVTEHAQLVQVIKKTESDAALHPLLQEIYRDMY
Experimental: as §1

[6] = small intestine, 25 mg/kg/day p.o. 3 days

concentration in the intestinal tract (intestinal content) ([1]; 10 mg/kg single dose p.o.): up to 150 ug/g
concentration in the intestinal tract (intestinal content), molar ([1]; 10 mg/kg single dose p.o.): about 200 μM
intestinal tract concentration compared with RIF [1]: significantly higher
intestinal tract concentration compared with RIF ([1]; listed as Rifaximin): highly concentrated
concentration in the small intestine (content) ([1]; single oral dose 10 mg/kg): ~160 µg/g
time the small intestine concentration lasted following administration ([1]; single oral dose 10 mg/kg): 9 h
effect on hepatic PXR target genes ([2]; liver, oral treatment): no significant effect
Intestinal CYP3A11 expression [2, 6]: no significant change
Intestinal GSTA1 mRNA increase [2, 6]: 74%
Intestinal OATP2 mRNA [2, 6]: no significant induction
intestinal MRP2 mRNA [2, 6]: no change
change in luciferase activity in the presence of CAR [3]: no significant change
change in luciferase activity in the presence of FXR [4]: no significant change
change in luciferase activity in the presence of PPARα [5]: no significant change
Structure (SMILES): COC1/C=C/OC2(C)Oc3c(C)c(O)c4c(O)c(c5c(nc6cc(C)ccn65)c4c3C2=O)NC(=O)/C(C)=C\C=C\C(C)C(O)C(C)C(O)C(C)C(OC(C)=O)C1C (centres unmarked) [RIFax, 4-Deoxy-4′-methylpyrido[1′,2′-1,2]imidazo[5,4-c]rifamycin SV]
